Experimental data published in ChEMBL document CHEMBL1201862, “PubChem BioAssay data set” (2004).
The source made the active and inactive calls.

Tests used:
[1] = biological target: Cytochrome P450 2C9 (Homo sapiens, UniProt P11712)
[2] = biological target: Mitogen-activated protein kinase 10 (Homo sapiens, UniProt P53779); test: Dose response biochemical screening assay for inhibitors of c-Jun N-Terminal Kinase 3 (JNK3). [Related pubchem assays: 746 ]
[3] = biological target: Peroxisome proliferator-activated receptor gamma/Nuclear receptor coactivator 2 (Homo sapiens, UniProt P37231); assay type: functional;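 also: agonist potency for raising coactivator recruitment to the receptor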
[4] = biological target: Peroxisome proliferator-activated receptor gamma/Nuclear receptor coactivator 3 (Homo sapiens, UniProt P37231); assay type: functional;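 also: agonist potency for raising coactivator recruitment to the receptor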
[5] = biological target: Peroxisome proliferator-activated receptor gamma/Nuclear receptor coactivator 1 (Homo sapiens, UniProt P37231); assay type: functional;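 also: agonist potency as compounds enhance coactivator SRC-1 recruitment to PPARgamma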
[6] = biological target: T1, Heat shock factor protein 1 (Mus musculus, UniProt P38532); test: enhancement of HSF1-driven luciferase signal – cell-based, NIH3T3, luminescence, dose retest, confirmation (AID 435004); assay type: functional;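 also: stress induced by proteasome inhibitor MG132 added 30 min after compound; luciferase reporter driven by HSF1 response element in NIH3T3 cells; actives raise luminescence as potentiators of the MG132 stress response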
T1 sequence (P38532 whole entry): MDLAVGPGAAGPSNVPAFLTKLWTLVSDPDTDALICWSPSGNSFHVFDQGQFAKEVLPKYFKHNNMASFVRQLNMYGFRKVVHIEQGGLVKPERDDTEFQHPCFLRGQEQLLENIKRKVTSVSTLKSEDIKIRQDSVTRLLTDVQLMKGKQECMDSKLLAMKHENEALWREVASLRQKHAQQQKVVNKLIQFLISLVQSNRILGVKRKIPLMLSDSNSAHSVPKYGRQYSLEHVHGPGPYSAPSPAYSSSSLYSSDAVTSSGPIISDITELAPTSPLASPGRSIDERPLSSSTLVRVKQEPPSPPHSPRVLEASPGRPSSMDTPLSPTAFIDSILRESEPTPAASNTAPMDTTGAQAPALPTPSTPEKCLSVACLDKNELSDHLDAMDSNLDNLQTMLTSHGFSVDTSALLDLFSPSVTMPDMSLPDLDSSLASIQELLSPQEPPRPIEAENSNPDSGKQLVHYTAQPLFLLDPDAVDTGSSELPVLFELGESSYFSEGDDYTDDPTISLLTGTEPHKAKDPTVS

[7] = biological target: Glyceraldehyde-3-phosphate dehydrogenase (Homo sapiens, UniProt P04406)
[8] = HIV-1 Vif–A3G interaction blockers – biochemical, TR-FRET, GST-Vif 1-94, biotin-A3G peptide, dose response retest, primary screen (AID 1117319); assay type: functional;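 also: TR-FRET signal of purified GST-Vif binding a biotinylated A3G peptide; inhibitors lower the FRET signal by blocking Vif and A3G binding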
[9] = viability of uninfected HEp-2 cells – cell-based, HTS, cytotoxicity control for RSV inhibitor project, dose response (AID 2410); assay type: functional; settings: human respiratory syncytial virus
[10] = Luminescence Cell-Based Dose Retest to Confirm Inhibitors of Cancer Stem Cells. [Related pubchem assays (depositor defined):AID2717, AID2721]; assay type: functional; settings: Homo sapiens
[11] = biological target: Prothrombin (Homo sapiens, UniProt P00734); test: Thrombin 1536 HTS Dose Response Confirmation. [Related pubchem assays: 1046 (Thrombin 1536 HTS; hits were confirmed in this assay)]; assay type: functional
[12] = biological target: T2, fMet-Leu-Phe receptor (Homo sapiens, UniProt P21462); test: formyl peptide receptor binders – dose response (AID 519); assay type: functional
T2 sequence (P21462 whole entry): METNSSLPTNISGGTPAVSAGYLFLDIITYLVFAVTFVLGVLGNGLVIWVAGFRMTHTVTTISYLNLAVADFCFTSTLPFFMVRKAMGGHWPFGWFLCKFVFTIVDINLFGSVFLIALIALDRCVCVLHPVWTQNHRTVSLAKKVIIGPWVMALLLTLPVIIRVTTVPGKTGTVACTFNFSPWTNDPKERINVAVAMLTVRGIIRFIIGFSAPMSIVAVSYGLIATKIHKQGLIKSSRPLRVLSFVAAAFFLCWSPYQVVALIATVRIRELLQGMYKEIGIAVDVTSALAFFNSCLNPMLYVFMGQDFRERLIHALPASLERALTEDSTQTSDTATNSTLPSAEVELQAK

[13] = biological target: Cytochrome P450 2C19 (Homo sapiens, UniProt P33261); test: Cytochrome panel assay with activity outcomes. Panel member name: p450-cyp2c19 Compounds with AC50 equal or less than 10 uM are considered active; assay type: functional; settings: read-out: AC50
[14] = biological target: T3, Cytochrome P450 1A2 (Homo sapiens, UniProt P05177);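 also: PubChem cytochrome P450 panel assay, CYP1A2 panel member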
T3 sequence (P05177 whole entry): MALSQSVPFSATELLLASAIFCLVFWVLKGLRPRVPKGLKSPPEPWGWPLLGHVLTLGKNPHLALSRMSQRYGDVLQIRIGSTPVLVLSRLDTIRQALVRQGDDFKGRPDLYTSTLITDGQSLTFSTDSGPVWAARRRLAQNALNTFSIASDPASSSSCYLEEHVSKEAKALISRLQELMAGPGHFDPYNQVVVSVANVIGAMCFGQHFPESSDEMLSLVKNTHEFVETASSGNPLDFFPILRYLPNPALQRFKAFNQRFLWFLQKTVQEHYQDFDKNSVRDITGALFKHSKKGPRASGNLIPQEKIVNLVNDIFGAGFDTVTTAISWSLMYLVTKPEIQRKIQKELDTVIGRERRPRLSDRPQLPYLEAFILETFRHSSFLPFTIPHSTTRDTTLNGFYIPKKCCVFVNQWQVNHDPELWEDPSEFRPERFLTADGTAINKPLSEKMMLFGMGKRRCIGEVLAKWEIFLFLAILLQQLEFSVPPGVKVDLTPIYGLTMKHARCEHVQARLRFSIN

[15] = system: Streptococcus sp. 'group A'; test: Streptococcus pyogenes SK(-)GAS viability under kanamycin – luminescence, BacTiterGlo, confirmation, counter-screen for streptokinase expression inhibitor project, dose response (AID 1900); assay type: functional, organism-based
[16] = biological target: T4, Streptokinase A (Streptococcus pyogenes serotype M1, UniProt P10520); test: viability-normalized secreted streptokinase activity reduction – plasminogen activation absorbance, OD405, dose response (AID 1914); assay type: functional, Streptococcus pyogenes M1 GAS;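 also: secreted streptokinase activity via plasminogen activation per viability signal from cell pellet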
T4 sequence (P10520 whole entry): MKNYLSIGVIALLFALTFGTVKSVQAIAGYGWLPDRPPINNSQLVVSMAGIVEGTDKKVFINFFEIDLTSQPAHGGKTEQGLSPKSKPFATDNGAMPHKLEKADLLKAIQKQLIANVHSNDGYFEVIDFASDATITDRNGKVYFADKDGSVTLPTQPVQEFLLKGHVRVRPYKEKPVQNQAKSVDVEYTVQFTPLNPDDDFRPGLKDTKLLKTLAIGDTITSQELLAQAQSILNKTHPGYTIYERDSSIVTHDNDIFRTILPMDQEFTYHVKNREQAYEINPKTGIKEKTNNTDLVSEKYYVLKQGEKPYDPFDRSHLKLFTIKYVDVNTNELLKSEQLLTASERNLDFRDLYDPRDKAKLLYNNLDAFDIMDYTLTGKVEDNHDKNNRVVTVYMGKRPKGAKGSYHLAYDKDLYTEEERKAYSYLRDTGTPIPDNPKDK

[17] = system: Streptococcus; test: GAS UMAA2166 growth inhibition – luminescence, BacTiterGlo, counter-screen for streptokinase expression inhibitor project, dose response (AID 1915); assay type: functional, organism-based;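 also: potency for reduction of bacterial viability or growth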
[18] = biological target: T5, Low molecular weight phosphotyrosine protein phosphatase (Homo sapiens, UniProt P24666); assay type: functional; settings: read-out: IC50_Mean;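 also: Dose-response confirmation assay measuring inhibition of LMPTP enzyme activity by fluorescence intensity read-out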
T5 sequence (P24666 whole entry): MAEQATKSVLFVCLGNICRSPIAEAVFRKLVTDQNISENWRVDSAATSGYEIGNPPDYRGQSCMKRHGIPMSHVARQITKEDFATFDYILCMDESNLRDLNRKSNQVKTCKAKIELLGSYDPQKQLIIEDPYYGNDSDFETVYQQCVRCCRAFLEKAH

[19] = biological target: T6, Protein skinhead-1 (Caenorhabditis elegans, UniProt P34707); assay type: functional
T6 sequence (P34707 whole entry): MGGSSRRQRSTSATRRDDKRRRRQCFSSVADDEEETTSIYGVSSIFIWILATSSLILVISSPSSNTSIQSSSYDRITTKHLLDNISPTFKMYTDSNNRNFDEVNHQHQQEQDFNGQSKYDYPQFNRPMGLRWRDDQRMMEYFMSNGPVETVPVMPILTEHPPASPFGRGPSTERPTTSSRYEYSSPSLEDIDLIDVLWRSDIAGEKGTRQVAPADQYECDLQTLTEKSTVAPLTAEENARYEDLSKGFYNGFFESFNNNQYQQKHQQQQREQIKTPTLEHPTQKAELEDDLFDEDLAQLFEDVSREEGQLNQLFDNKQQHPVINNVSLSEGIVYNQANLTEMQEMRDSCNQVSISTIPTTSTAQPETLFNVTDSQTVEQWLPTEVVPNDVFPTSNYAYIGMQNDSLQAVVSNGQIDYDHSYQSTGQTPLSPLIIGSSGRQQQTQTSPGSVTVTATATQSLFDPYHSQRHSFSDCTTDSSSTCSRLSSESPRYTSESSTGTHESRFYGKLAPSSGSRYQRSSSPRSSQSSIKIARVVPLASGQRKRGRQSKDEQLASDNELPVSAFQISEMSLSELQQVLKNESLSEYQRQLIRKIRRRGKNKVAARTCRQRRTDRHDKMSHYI

[20] = biological target: Cytochrome P450 2D6 (Homo sapiens, UniProt P10635);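 also: CYP2D6 member of a cytochrome P450 panel assay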

Chain of Mitogen-activated protein kinase 10 (P53779 whole entry): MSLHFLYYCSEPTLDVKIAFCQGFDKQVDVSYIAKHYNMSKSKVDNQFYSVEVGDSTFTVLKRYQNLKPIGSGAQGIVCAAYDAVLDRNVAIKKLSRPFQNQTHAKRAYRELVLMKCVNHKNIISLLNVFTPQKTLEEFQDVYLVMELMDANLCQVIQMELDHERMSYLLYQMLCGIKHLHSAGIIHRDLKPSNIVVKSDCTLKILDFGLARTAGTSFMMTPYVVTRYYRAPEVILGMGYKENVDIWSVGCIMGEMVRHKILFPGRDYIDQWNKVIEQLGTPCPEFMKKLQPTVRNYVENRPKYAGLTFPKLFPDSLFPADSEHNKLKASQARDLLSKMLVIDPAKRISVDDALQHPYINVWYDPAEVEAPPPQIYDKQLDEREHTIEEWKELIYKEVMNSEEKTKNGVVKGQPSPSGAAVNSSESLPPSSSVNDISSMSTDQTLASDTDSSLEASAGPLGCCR
Chain of Peroxisome proliferator-activated receptor gamma/Nuclear receptor coactivator 1 (P37231 whole entry): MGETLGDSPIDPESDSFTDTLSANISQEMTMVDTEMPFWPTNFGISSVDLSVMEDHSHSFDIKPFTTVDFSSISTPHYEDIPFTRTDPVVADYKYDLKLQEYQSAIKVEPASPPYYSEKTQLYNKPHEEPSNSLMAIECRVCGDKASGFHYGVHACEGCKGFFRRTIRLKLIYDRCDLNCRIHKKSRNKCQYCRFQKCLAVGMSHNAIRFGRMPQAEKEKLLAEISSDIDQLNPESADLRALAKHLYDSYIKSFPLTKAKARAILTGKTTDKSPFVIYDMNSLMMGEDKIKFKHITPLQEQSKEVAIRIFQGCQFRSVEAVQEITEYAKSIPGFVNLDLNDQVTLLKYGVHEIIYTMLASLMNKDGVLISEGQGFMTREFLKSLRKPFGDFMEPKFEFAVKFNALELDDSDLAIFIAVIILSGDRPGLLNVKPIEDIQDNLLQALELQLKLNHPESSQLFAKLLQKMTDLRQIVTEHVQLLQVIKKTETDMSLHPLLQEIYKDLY
Chain of Peroxisome proliferator-activated receptor gamma/Nuclear receptor coactivator 1 (Q15788 whole entry, further chain): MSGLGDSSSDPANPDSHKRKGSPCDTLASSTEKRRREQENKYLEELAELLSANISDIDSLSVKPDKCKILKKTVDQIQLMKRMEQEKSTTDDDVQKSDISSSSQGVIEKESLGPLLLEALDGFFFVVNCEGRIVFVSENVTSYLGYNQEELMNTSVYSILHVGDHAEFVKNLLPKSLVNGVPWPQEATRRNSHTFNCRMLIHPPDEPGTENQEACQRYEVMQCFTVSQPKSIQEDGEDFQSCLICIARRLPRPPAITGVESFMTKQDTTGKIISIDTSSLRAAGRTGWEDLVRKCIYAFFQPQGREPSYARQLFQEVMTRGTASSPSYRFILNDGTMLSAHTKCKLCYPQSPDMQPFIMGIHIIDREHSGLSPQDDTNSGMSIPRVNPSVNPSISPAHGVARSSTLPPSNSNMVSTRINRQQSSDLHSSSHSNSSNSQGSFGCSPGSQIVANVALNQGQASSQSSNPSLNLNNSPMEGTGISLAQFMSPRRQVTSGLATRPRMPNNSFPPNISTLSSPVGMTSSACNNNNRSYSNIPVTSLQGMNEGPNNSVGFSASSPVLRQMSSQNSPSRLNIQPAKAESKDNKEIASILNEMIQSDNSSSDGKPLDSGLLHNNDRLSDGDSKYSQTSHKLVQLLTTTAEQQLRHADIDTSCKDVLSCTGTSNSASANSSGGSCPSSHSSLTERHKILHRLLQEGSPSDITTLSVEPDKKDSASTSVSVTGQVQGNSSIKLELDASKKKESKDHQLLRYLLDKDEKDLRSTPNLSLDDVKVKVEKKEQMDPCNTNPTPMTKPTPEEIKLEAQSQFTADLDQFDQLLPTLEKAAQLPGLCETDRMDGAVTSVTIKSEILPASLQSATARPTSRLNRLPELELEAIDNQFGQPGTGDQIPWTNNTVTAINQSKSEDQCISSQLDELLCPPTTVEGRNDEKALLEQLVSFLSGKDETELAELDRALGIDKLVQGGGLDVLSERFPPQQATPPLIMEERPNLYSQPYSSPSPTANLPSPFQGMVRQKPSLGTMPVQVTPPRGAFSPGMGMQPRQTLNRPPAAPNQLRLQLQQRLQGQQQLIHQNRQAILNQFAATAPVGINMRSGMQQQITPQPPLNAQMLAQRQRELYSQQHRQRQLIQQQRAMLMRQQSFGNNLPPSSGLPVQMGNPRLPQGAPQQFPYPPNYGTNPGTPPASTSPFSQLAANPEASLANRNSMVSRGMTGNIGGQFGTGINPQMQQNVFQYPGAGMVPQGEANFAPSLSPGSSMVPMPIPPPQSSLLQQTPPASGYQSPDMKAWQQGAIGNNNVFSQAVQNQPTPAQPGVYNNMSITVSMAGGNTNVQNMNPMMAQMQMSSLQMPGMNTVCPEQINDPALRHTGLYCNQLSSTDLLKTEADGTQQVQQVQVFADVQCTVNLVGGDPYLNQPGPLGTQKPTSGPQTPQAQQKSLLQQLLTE
Chain of Peroxisome proliferator-activated receptor gamma/Nuclear receptor coactivator 2 (P37231 whole entry): as the sequence (P37231 whole entry) above
Chain of Peroxisome proliferator-activated receptor gamma/Nuclear receptor coactivator 2 (Q15596 whole entry, further chain): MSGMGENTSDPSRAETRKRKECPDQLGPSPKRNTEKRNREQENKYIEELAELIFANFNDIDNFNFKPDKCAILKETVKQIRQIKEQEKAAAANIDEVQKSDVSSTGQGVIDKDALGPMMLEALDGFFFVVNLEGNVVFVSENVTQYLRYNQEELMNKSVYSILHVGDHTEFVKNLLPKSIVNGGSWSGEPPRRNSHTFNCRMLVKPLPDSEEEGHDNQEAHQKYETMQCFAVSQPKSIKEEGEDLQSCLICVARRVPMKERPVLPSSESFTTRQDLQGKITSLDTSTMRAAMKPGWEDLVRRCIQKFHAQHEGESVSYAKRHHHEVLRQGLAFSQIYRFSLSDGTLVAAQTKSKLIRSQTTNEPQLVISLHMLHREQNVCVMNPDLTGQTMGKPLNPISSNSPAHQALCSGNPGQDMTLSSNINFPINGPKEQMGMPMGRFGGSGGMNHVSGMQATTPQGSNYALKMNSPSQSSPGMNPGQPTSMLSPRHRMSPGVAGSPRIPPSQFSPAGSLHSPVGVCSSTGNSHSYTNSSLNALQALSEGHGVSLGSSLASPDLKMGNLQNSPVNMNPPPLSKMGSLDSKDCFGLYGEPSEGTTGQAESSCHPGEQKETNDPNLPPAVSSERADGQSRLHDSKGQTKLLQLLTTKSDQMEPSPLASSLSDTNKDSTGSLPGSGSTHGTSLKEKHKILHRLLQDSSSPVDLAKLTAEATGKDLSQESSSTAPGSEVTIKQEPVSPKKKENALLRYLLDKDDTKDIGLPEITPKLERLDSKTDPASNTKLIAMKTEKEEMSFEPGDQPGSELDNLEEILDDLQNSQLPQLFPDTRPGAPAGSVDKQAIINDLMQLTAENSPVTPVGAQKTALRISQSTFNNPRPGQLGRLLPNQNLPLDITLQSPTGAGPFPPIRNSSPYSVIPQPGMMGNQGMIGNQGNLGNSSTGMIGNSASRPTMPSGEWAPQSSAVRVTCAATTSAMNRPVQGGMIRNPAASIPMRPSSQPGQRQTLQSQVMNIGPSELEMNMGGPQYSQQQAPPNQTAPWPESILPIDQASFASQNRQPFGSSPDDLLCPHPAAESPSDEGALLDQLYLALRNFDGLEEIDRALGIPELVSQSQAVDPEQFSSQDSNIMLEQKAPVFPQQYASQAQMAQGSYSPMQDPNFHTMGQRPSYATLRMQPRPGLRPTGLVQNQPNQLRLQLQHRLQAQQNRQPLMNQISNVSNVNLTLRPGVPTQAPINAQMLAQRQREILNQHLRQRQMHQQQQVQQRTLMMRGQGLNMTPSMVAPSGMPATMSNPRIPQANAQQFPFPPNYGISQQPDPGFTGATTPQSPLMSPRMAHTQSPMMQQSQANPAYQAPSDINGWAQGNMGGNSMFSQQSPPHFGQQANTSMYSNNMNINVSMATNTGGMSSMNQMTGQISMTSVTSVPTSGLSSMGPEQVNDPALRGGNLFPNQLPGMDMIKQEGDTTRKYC
Chain of Cytochrome P450 2C9 (P11712 whole entry): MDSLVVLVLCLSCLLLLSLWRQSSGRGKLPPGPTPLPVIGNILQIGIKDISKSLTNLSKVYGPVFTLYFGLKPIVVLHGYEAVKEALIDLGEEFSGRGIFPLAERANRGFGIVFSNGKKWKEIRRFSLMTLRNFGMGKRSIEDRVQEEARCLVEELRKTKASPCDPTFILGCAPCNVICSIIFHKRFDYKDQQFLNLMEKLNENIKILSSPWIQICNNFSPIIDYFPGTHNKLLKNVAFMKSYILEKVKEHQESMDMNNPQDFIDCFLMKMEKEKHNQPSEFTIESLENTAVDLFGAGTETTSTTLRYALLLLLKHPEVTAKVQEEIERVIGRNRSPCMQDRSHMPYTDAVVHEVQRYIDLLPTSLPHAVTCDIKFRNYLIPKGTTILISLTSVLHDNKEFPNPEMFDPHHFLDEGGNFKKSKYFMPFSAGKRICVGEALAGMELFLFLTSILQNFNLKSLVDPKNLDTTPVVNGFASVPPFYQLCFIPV

O=C(NC1CCCC1)c1cccnc1N1CCCCCC1
AC50 [1]: 35.5 µM (inconclusive)
IC50 [2]: > 93.1 µM (not active)

Cc1ccc(-n2c(C)cc(C(=O)COc3c(CO)cc(F)cc3CO)c2C)cc1C
EC50 [3]: > 79.4 µM (not active)
EC50 [4]: > 79.4 µM (not active)
EC50 [5]: > 79.4 µM (not active)
EC50 [6]: > 260 µM (inactive)

C[C@H]1CN(C2=C(Cl)C(=O)N(c3cccc(C(F)(F)F)c3)C2=O)CCN1
IC50 [7]: > 50 µM (inconclusive)

Cn1c(CN2CCOCC2)nc2cc(NC(=O)c3ccc(F)cc3)ccc21
IC50 [8]: > 100 µM (active)

Cc1ccccc1CC1(CO)CCCN(C(=O)CCC(=O)c2ccccc2)C1 (stereo not given)
CC50 [9]: 28.5 µM (active)
EC50 [3]: > 79.4 µM (not active)
EC50 [4]: > 79.4 µM (not active)
EC50 [5]: > 79.4 µM (not active)

COc1cccc2sc(N3CCN(c4nc5ccccc5s4)CC3)nc12
EC50 [3]: 19.1 µM (not active)
EC50 [4]: 22.9 µM (not active)
EC50 [5]: 13.4 µM (not active)

COc1ccc(C2(CNC(=O)/C=C\c3ccco3)CCCC2)cc1OC
EC50 [3]: > 79.4 µM (not active)
EC50 [4]: > 79.4 µM (not active)
EC50 [5]: > 79.4 µM (not active)

CC1(C)CN(c2ccccc2)N(C(=O)c2ccc(F)cc2)C1=O
AC50 [10]: 3.63 µM (active)
IC50 [11]: 0.837 µM (active)

COc1cc(CN/C(C)=C(\C#N)C(N)=O)cc(OC)c1OC
IC50 [2]: 7.16 µM (active)

COc1ccccc1C1C(C(=O)c2ccccc2)=C(O)C(=O)N1CCO (stereo not given)
Ki [12]: 19.7 µM (inactive)
AC50 [13]: 39.8 µM (inconclusive)
AC50 [1]: 39.8 µM (inconclusive)
AC50 [14]: 0.794 µM (inconclusive)

O=C(CSc1nc(O)c2cnn(-c3ccc(F)cc3)c2n1)N1CCCCCC1
IC50 [11]: > 50 µM (not active)

Oc1[nH]c2ccccc2c1/C=N/c1ccc2c(c1)OCCO2
IC50 [2]: 89.9 µM (not active)

Cc1ccc(N2C(=O)C(Cl)=C(N(C)C)C2=O)cc1
IC50 [7]: > 50 µM (inconclusive)

CCOC(=O)n1cc(-c2cnc(CNC(=O)C(C)(c3ccccc3)c3ccccc3)o2)c2ccccc21
EC50 [3]: > 79.4 µM (not active)
EC50 [4]: > 79.4 µM (not active)
EC50 [5]: > 79.4 µM (not active)

CCn1cc(C(=O)NCc2ccc3c(c2)OCO3)c(=O)c2cc(F)c(N3CCN(C(=O)c4ccco4)CC3)cc21
EC50 [15]: 6.52 µM (active)
EC50 [16]: > 150 µM (not active)
EC50 [17]: 20.8 µM (active)
IC50 [18]: 29.4 µM (inactive)

COC(=O)c1[nH]c(C)c(C(=O)C2=C(O)C(=O)N(CCCN3CCOCC3)C2c2ccccn2)c1C (stereo not given)
Ki [12]: 9.7 µM (active)
IC50 [19]: > 100 µM (inactive)

COc1ccc(C(C)=O)cc1COC(=O)c1c(C)noc1C
IC50 [2]: 39.8 µM (not active)

COc1ccccc1CNC(=O)c1cn(C)c2ccc(S(=O)(=O)N3CCCC3)cc2c1=O
IC50 [11]: 5.95 µM (active)

CCC(C)(C(=O)NC1CCCC1)N(CC1CCCO1)C(=O)c1ccc2c(c1)OCO2 (stereo not given)
Ki [12]: > 66.7 µM (inactive)
AC50 [13]: 5.62 µM (inconclusive)
AC50 [20]: 35.5 µM (inconclusive)
AC50 [14]: 39.8 µM (inconclusive)

Oc1c(C(c2ccccc2)N2CCN(Cc3ccccc3)CC2)sc2ncnn12 (stereo not given)
IC50 [8]: > 100 µM (active)

COc1ccc(/C=N\NS(=O)(=O)c2ccc(Cl)cc2)cc1COc1ccccc1[N+](=O)[O-]
IC50 [11]: > 50 µM (not active)
